Results from patent US20240279218A1 (Hoffmann-La Roche Inc., priority 2016, published 2024).

Columns and labels:
h-GABA-A α5β3γ2 [1] = biological target: T1, h-GABA-A α5β3γ2 (Homo sapiens (Human), UniProt P18507+P31644); test: Two-electrode voltage clamp electrophysiology in Xenopus oocytes expressing GABAA receptors, modulation of GABA EC20 current; assay type: cell-based; conditions: for Efficacy (GABA) %: % modulation of GABA EC20 = 100*(Fold increase−1); for Efficacy (GABA) % / Fold increase h-GABA-A α5β3γ2 oocyte: Xenopus oocytes; for Fold increase h-GABA-A α5β3γ2 oocyte: GABA EC20, test compound at approx. 30 fold its Ki
Procedure: Xenopus laevis oocytes at maturation stages V-VI were used for the expression of cloned mRNA encoding GABAA receptor subunits. Oocytes ready for RNA micro-injection were bought from Ecocyte, Castrop-Rauxel, Germany and stored in modified Barth's medium (composition in mM: NaCl 88, KCl 1, NaHCO32.4, HEPES 10, MgSO4 0.82, CaNO3 0.33, CaCl2) 0.33, pH=7.5) at 20° C. until the experiment.
Oocytes were plated in 96-well plates to be used in an automated instrument (Robo-ocyte, MultiChannelSystems, Reutlingen, Germany) for microinjection and electrophysiological recordings. Approximately 50 nl of an aqueous solution containing the RNA transcripts for the subunits of the desired GABAA receptor was injected into each oocyte. RNA concentrations ranged between 0.3 and 16 ng/μl/subunit and were adjusted in pilot experiments to obtain GABA responses of a suitable size and a maximal effect of the reference modulator, Beta-CCM (β-CCM), a betacarboline negative allosteric modulator (NAM) at the GABAA receptor benzodiazepine (BZD) binding site or Midazolam, a benzodiazepine positive allosteric modulator (PAM) at the GABAA receptor benzodiazepine (BZD) binding site. The concentration of the γ2 subunit encoding RNA usually was 5-to 10-fold higher than the RNAs encoding the other subunits. Oocytes were kept in modified Barth's medium (composition in mM: NaCl 88, KCl 1, NaHCO3 4, HEPES 10, MgSO4 0.82, CaNO3 0.33, CaCl2 0.33, pH=7.5) at 20° C. until the experiment.
Electrophysiological experiments were performed on days 3 to 5 after the micro-injection of mRNA. During the experiment the oocytes were constantly superfused by a solution containing (in mM) NaCl 90, KCl 1, HEPES 5, MgCl2 1, CaCl2 1 (pH 7.4). Oocytes were impaled by two glass microelectrodes (resistance: 0.4 MΩ) which were filled with a solution containing KCl 1M+K-acetate 1.5 M and voltage-clamped to −80 mV. The recordings were performed at room temperature using the Roboocyte two-electrode voltage clamp system (Multichannelsystem). After an initial equilibration period of 1.5 min GABA was added for 1.5 min at a concentration evoking approximately 20% of a maximal current response (EC20). After another rest interval of 2.5 min GABA was again added evoking a response of similar amplitude and shape. […] Current traces were recorded at a digitization rate of 10 Hz during and shortly before and after the GABA application.
Each compound and concentration was tested on at least 3 oocytes.
For the analysis, the digitized current traces of the first and second GABA response were superimposed and, if necessary, rescaled to equal maximal amplitudes. The ratio between the two responses during the time interval of test compound application was calculated point by point. The extremum of the resulting “ratio trace” was taken as the efficacy (“Fold increase”) of the compound expressed as “% modulation of GABA EC20” (100*(Fold increase−1)).

h-GABA-A α5β3γ2 [2] = biological target: T1, h-GABA-A α5β3γ2; test: [3H]flumazenil competition binding assay, membranes of HEK293 cells expressing human GABAA receptors; conditions: displacement of [3H]flumazenil 0.5 nM, HEK293 cells expressing human receptors, mean of two determinations; read-out: Ki h-GABA-A α5β3γ2
Procedure: The affinity of compounds at GABAA receptor subtypes was measured by competition for [3H]flumazenil (85 Ci/mmol; Roche) binding to HEK293 cells expressing rat (stably transfected) or human (transiently transfected) receptors of composition α1β3γ2, α2β3γ2, α3β3γ2 and α5β3γ2.
Cell pellets were suspended in Krebs-tris buffer (4.8 mM KCl, 1.2 mM CaCl2, 1.2 mM MgCl2, 120 mM NaCl, 15 mM Tris; pH 7.5; binding assay buffer), homogenized by polytron for ca. 20 sec on ice and centrifuged for 60 min at 4° C. (50000 g; Sorvall, rotor: SM24=20000 rpm). The cell pellets were resuspended in Krebs-tris buffer and homogenized by polytron for ca. 15 sec on ice. Protein was measured (Bradford method, Bio-Rad) and aliquots of 1 mL were prepared and stored at −80° C.
Assays were incubated to equilibrium for 1 hour at 4° C. and harvested onto GF/C uni-filters (Packard) by filtration using a Packard harvester and washing with ice-cold wash buffer (50 mM Tris; pH 7.5). After drying, filter-retained radioactivity was detected by liquid scintillation counting. Ki values were calculated using Excel-Fit (Microsoft) and are the means of two determinations.

[3] = positive control, maximally effective concentration, 3-6 oocytes per plate

| SMILES | Efficacy (GABA) % (h-GABA-A α5β3γ2 [1]) [%] | Fold increase h-GABA-A α5β3γ2 oocyte (h-GABA-A α5β3γ2 [1]) | Ki (h-GABA-A α5β3γ2 [2]) [µM] | Fold increase (h-GABA-A α5β3γ2 [1]; [3]) | potentiation of the GABA-induced current (h-GABA-A α5β3γ2 [1]; [3]) [%] | inhibition of the GABA-evoked current (h-GABA-A α5β3γ2 [1]; [3]) [%] |
| --- | --- | --- | --- | --- | --- | --- |
| Cc1ccc(-c2noc(C)c2COc2ccc(C(=O)NC(C)C(F)(F)F)nn2)cn1 (racemic) [Example 34, (RS)-6-((5-methyl-3-(6-methylpyridin-3-yl)isoxazol-4-yl)methoxy)-N-(1,1,1-trifluoropropan-2-yl)pyridazine-3-carboxamide] | 84 | 1.84 | – | – | – | – |
| Cc1ccc(-c2noc(C)c2COc2ccc(C(=O)NC3CCS(=O)(=O)C3)nn2)cn1 (racemic) [Example 36, (RS)—N-(1,1-dioxothiolan-3-yl)-6-((5-methyl-3-(6-methylpyridin-3-yl)-1,2-oxazol-4-yl)methoxy)pyridazine-3-carboxamide] | 65 | 1.65 | – | – | – | – |
| Cc1ccc(-c2noc(C)c2COc2ccc(C(=O)NC3CCOC3)nn2)cn1 (racemic) [Example 45, (RS)-6-((5-methyl-3-(6-methylpyridin-3-yl)isoxazol-4-yl)methoxy)-N-(tetrahydrofuran-3-yl)pyridazine-3-carboxamide] | 84 | 1.84 | – | – | – | – |
| Cc1ccc(-c2noc(C)c2COc2ccc(C(=O)NC3CCOC(C)(C)C3)nn2)cn1 (racemic) [Example 58, (RS)—N-(2,2-dimethyltetrahydropyran-4-yl)-6-((5-methyl-3-(6-methylpyridin-3-yl)isoxazol-4-yl)methoxy)pyridazine-3-carboxamide] | 71 | 1.71 | – | – | – | – |
| Cc1ccc(-c2noc(C)c2COc2ccc(C(=O)NC3(C)CCOC3)nn2)cn1 (racemic) [Example 75] | 89 | 1.89 | – | – | – | – |
| Cc1ccc(-c2noc(C)c2COc2ccc(C(=O)N[C@@H]3CC[C@@H](O)C3)nn2)cn1 (racemic) [Example 152, N-((1RS,3RS)-3-hydroxycyclopentyl)-6-((5-methyl-3-(6-methylpyridin-3-yl)isoxazol-4-yl)methoxy)pyridazine-3-carboxamide] | 85 | 1.85 | – | – | – | – |
| CO[C@@H]1CC[C@@H](NC(=O)c2ccc(OCc3c(-c4ccc(C)nc4)noc3C)nn2)C1 (racemic) [Example 166, trans-N-((1RS,3RS)-3-methoxycyclopentyl)-6-((5-methyl-3-(6-methylpyridin-3-yl)isoxazol-4-yl)methoxy)pyridazine-3-carboxamide] | 70 | 1.7 | – | – | – | – |
| Cc1ccc(-c2noc(C)c2COc2ccc(C(=O)NC3CCCOCC3)nn2)cn1 (racemic) [Example 187, (RS)-6-((5-methyl-3-(6-methylpyridin-3-yl)isoxazol-4-yl)methoxy)-N-(oxepan-4-yl)pyridazine-3-carboxamide] | 88 | 1.88 | – | – | – | – |
| Cc1ccc(-c2noc(C)c2COc2ccc(C(=O)N[C@@]3(C)CCOC3)nn2)cn1 (single isomer, unassigned) [Example 81] | 80 | 1.8 | 0.0104 | – | – | – |
| Cc1ccc(-c2noc(C)c2COc2ccc(C(=O)N[C@]3(C)CCOC3)nn2)cn1 (single isomer, unassigned) [Example 82] | 101 | 2.01 | 0.0124 | – | – | – |
| Cc1ccc(-c2noc(C)c2COc2ccc(C(=O)N[C@@H]3CC[C@@](O)(C(F)(F)F)C3)nn2)cn1 (single isomer, unassigned) [Example 149] | 37 | 1.37 | 0.005 | – | – | – |
| Cc1ccc(-c2noc(C)c2COc2ccc(C(=O)N[C@H]3CC[C@](O)(C(F)(F)F)C3)nn2)cn1 (single isomer, unassigned) [Example 150] | 69 | 1.69 | 0.0167 | – | – | – |
| Cc1ccc(-c2noc(C)c2COc2ccc(C(=O)N[C@H]3C[C@H]4CC[C@H]3O4)nn2)cn1 (single isomer, unassigned) [Example 188] | 71 | 1.71 | 0.0207 | – | – | – |
| Cc1ccc(-c2noc(C)c2COc2ccc(C(=O)N[C@@H]3C[C@@H]4CC[C@@H]3O4)nn2)cn1 (single isomer, unassigned) [Example 189] | 86 | 1.86 | 0.0188 | – | – | – |
| Cc1ccc(-c2noc(C)c2COc2cnc(C(=O)NC3CCOC3)cn2)cn1 (stereo in doubt) [Example 92, (S)-5-((5-Methyl-3-(6-methylpyridin-3-yl)isoxazol-4-yl)methoxy)-N-(tetrahydrofuran-3-yl)pyrazine-2-carboxamide] | 67 | 1.67 | 0.0132 | – | – | – |
| Cc1ccc(-c2noc(C)c2COc2ccc(C(=O)NC3CCOCC3)cn2)cn1 [Example 1, 6-((5-methyl-3-(6-methyl-3-pyridyl)isoxazol-4-yl)methoxy)-N-tetrahydropyran-4-yl-pyridine-3-carboxamide] | 42 | 1.42 | 0.0048 | – | – | – |
| Cc1ccc(-c2nocc2COc2ccc(C(=O)NC3CCOCC3)cn2)cn1 [Example 44, 6-((3-(6-methyl-3-pyridyl)isoxazol-4-yl)methoxy)-N-tetrahydropyran-4-yl-pyridine-3-carboxamide] | 54 | – | – | – | – | – |
| Cc1ccc(-c2noc(C)c2COc2ccc(C(=O)NC(C)(C)CCS(C)(=O)=O)nn2)cn1 [Example 80, 6-((5-methyl-3-(6-methylpyridin-3-yl)isoxazol-4-yl)methoxy)-N-(2-methyl-4-(methylsulfonyl)butan-2-yl)pyridazine-3-carboxamide] | 108 | 2.08 | – | – | – | – |
| Cc1ccc(-c2noc(C)c2COc2ccc(C(=O)N3C[C@@H]4C[C@H]3CO4)nn2)cn1 [Example 151, (1S,4S)-2-oxa-5-azabicyclo[2.2.1]heptan-5-yl(6-((5-methyl-3-(6-methylpyridin-3-yl)isoxazol-4-yl)methoxy)pyridazin-3-yl)methanone] | 68 | – | – | – | – | – |
| Cc1onc(-c2ccc(Cl)nc2)c1COc1ccc(C(=O)N[C@H]2CCOC2)nn1 [Example 160, (S)-6-((3-(6-chloropyridin-3-yl)-5-methylisoxazol-4-yl)methoxy)-N-(tetrahydrofuran-3-yl)pyridazine-3-carboxamide] | 42 | – | – | – | – | – |
| O=C(N[C@H]1CCOC1)c1ccc(OCc2c(-c3ccc(Cl)nc3)noc2C2CC2)nn1 [Example 179, (S)-6-((3-(6-chloropyridin-3-yl)-5-cyclopropylisoxazol-4-yl)methoxy)-N-(tetrahydrofuran-3-yl)pyridazine-3-carboxamide] | 82 | – | – | – | – | – |
| Cc1ncc2n1-c1ccc(Cl)cc1C(c1ccccc1F)=NC2 [Midazolam, reference compound] | – | – | – | ~2.5 | ~150 | – |
| COC(=O)c1cc2c(cn1)[nH]c1ccccc12 [β-CCM, Beta-CCM, reference compound] | – | – | – | ~0.5 | – | ~50 |
